A word on the solubility: it is the concentration that dissolves in the medium under given conditions.

Converted amounts (≈) assume the structure as drawn.

Series [1] in a line: Determination of solubility (USP XXIII article Solubility). It counts as physicochemical. How it is done:
The solubility was determined in accordance with the requirements set out in the article “Solubility”, USPXXTIII (1995, p. 2071).

Series [2] deals with uterine neck cancer cells. In words: Cytotoxicity (MTT) on a culture of uterine neck cancer cells. To be noted: for Optical density at 540 nm: 4 days. It counts as cell-based. On the set-up: Effect on the proliferation of cancer cells: dose or concentration left out as unconfirmed. How it is done:
The determination was carried out by following the known procedure (Mosmann N. T., J. Immunology Methods, 1983, vol. 65, 55-63, Carmichel J. et al., Cancer Res., 1987, vol. 47, 936-946) on a culture of uterine neck cancer cells. The cells were grown at 37° C. on the RPMI 1640 medium with additives of a 10%embryonal serum of cows and 200 u/ml of gentamicin. CO2 content in the incubator atmosphere was 10%. The cells which were in the exponential phase of growth were suspended with trypsin and inoculated in an amount of 4×10^3 into each socket of a 96-socket dish for monolayer cultures. Solutions of samples of the preparations to be investigated were prepared by dissolving 23 mg of each preparation in 10 ml of a culture broth, 10^−2 M solutions being thus obtained. These were starting solutions for obtaining solutions of a lower concentration by diluting them with the culture broth. Directly before adding the solutions to the cells, these solutions were sterilized by filtering through millipore filters. One day after the inoculation of the cells, solutions of samples of the preparations to be investigated in prescribed concentrations were added into each socket of the dish. After that the cells grew for another 4 days.
All in all, 9 concentrations of each of the 4 samples of the investigated preparations were tested.
Quantitative estimation of the cytotoxicity of the investigated preparations was carried out with the use of 3-(4,5-dimethylthiazol-2-yl)-2,5-diphenyltetrazolium bromide (MTT). […] 0.5 mg/ml was added into each socket of the dish 4 hours before the completion of cells cultivation. On completion of the incubation, the culture broth was removed from the dish sockets, the formasane crystals were dissolved, and the cells were scanned on an automatic Multiscan MCC/340P reader at the 540 nm wavelength. The results were calculated in percent of the cells subjected to the effect of the investigated preparations, absorbed at 540 nm, as against the absorption of control cells.
The action of each concentration of the investigated preparations on cancer cells was estimated from the results of 4-6 independent experiments, treated by methods of mathematical statistics.

`O=c1[nH]c(=O)n(C2CCCO2)cc1F` (stereo not drawn) [pharmacopeial tegafur, 5-fluoro-1-(tetrahydro-2-furyl)uracil, reference compound] displayed a solubility in series [1] (20 °C, thermodynamic from solid, temperature of solvent 20 °C) of 8000 µg/mL (≈ 40 mM). The “Optical density at 540 nm” value in series [2] (5 × 10^−3 M (on conversion to tegafur), MTT, listed as Pharmacopeial tegafur) was 0.28 ± 0.005; in series [2] (5 × 10^−4 M (on conversion to tegafur), MTT, listed as Pharmacopeial tegafur) it was 0.56 ± 0.12; in series [2] (5 × 10^−5 M (on conversion to tegafur), MTT, listed as Pharmacopeial tegafur), 0.80 ± 0.10; in series [2] (5 × 10^−6 M (on conversion to tegafur), MTT, listed as Pharmacopeial tegafur), 0.76 ± 0.08; in series [2] (10^−2 M (on conversion to tegafur), MTT, listed as Pharmacopeial tegafur) it was 0.26 ± 0.04; in series [2] (10^−3 M (on conversion to tegafur), MTT, listed as Pharmacopeial tegafur), 0.45 ± 0.06. Further, the “Optical density at 540 nm” value worked out at 0.81 ± 0.13 in series [2] (10^−4 M (on conversion to tegafur), MTT, listed as Pharmacopeial tegafur); 0.81 ± 0.09 in series [2] (10^−5 M (on conversion to tegafur), MTT, listed as Pharmacopeial tegafur); 0.76 ± 0.05 in series [2] (10^−6 M (on conversion to tegafur), MTT, listed as Pharmacopeial tegafur). Besides, the “Effect on the proliferation of cancer cells” value in series [2] (range of concentrations of 10^−6) is listed as “does not affect the proliferation of cancer cells”.
In the case of `O=c1[nH]c(=O)n(C2CCCO2)cc1F` (stereo not drawn) [Form V of tegafur, 5-fluoro-1-(tetrahydro-2-furyl)uracil], the “Solubility compared with pharmacopeial tegafur” value in series [1] (in words) is reported as “higher than the solubility of pharmacopeial tegafur”. In addition, the “Solubility, % with respect to tegafur” value in series [1] (temperature of solvent 20 °C) is on record as 187.5%. The “Optical density at 540 nm” value in series [2] (5 × 10^−3 M (on conversion to tegafur), MTT) was determined as 0.25 ± 0.02; in series [2] (5 × 10^−4 M (on conversion to tegafur), MTT), 0.44 ± 0.05; in series [2] (5 × 10^−5 M (on conversion to tegafur), MTT), 0.70 ± 0.03; in series [2] (5 × 10^−6 M (on conversion to tegafur), MTT), 0.73 ± 0.03; in series [2] (10^−2 M (on conversion to tegafur), MTT) it was 0.16 ± 0.01; in series [2] (10^−3 M (on conversion to tegafur), MTT), 0.35 ± 0.02. The “Optical density at 540 nm” value in series [2] (10^−4 M (on conversion to tegafur), MTT) was found to be 0.56 ± 0.06; in series [2] (10^−5 M (on conversion to tegafur), MTT), 0.73 ± 0.08; in series [2] (10^−6 M (on conversion to tegafur), MTT), 0.79 ± 0.08. The “Inhibition of proliferation more intensive than tegafur” value in series [2] (at the concentration of 10^−4 M, relative to tegafur) was found to be 70%. For the same compound, the “Concentration at which the proliferation of cells is inhibited” value in series [2] (uterine neck cancer cells, MTT) stood at 50 µM.

The values above are taken from patent US6538001B1, “Crystalline modification of 5-fluoro-1-(tetrahydro-2-furyl) uracil and complex compounds based thereon, producing antineoplastic effect” (priority 2001, dated 2003).
